The nature of one data set: in vitro. Particulars: Chinese hamster, Cytotox. CHO-K1. The format is cell-based.
For a further data set, the system named is 3T3 fibroblast cells. Briefly: In vitro phototoxicity assay (neutral red; UV light-treated vs dark control plates). The settings on record: for Photo Toxicity UV Tox50: UV light 50 minutes; for Photo Toxicity Dark Tox50: dark control plate. The format is cell-based. The method in brief: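 Neutral red viability readout (A535 after EtOH/acetic acid extraction) compares paired plates: one exposed 50 min to UV at 1.6–1.8 mW/cm^2, one held in darkness, both dosed with compound in HBSS and recovered overnight. 3T3 fibroblast cells used; phototoxicity taken as the difference.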

For the next data set, the system named is gram negative bacteria. The data set can be described thus: In vitro anti-bacterial activity assay (broth dilution MIC), gram negative bacteria. The format is cell-based, E. coli. The method in brief: (§1)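 Broth dilution MIC following CLSI M7-A2: compounds serially diluted, log-phase test strains added to final ~5×10^5 CFU/ml, incubated ~18 hours at 35° C in ambient air. Plates read on microplate reader or visually; MIC is lowest concentration inhibiting growth.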
Background: Dilution methods test growth across graded concentrations, often in twofold steps.

A further data set has as its system gram positive bacteria. The data set can be described thus: In vitro anti-bacterial activity assay (broth dilution MIC), gram positive bacteria. The format is cell-based, S. aureus. Particulars: 18 h. The method in brief:
as §1

A short description of data set [1]: Mammalian cytotoxicity assay (resazurin), COS-1 cells. The format is cell-based. The settings on record: African green monkey, read-out: Cytotox. COS-1. The method, boiled down: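 Cells seeded overnight at 37° C., 5% CO2, then exposed to serial compound dilutions for 24 hours. Medium replaced with resazurin (0.042 mg/ml in PBS with Ca and Mg) for 2 hours plus 30 minutes dark at room temperature; fluorescence read at ex 535/em 590 nm, IC50 taken as 50% growth inhibition.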
(Alamar Blue is a resazurin reagent that responds to reducing activity.)

[2] abbreviates: Escherichia coli, 18 h, E. coli D1 209, read-out: Median MIC's G− E. coli D1 209.
[3] abbreviates: Escherichia coli, 18 h, E. coli MG 1655, read-out: Median MIC's G− E. coli MG 1655.
Where [4] appears, read: Escherichia coli, ATCC25922, 18 h, E. coli ATCC 25922, read-out: Median MIC's G− E. coli ATCC 25922.
Where [5] appears, read: Pseudomonas aeruginosa, 18 h, P. aeruginosa K201 PAO6609, read-out: Median MIC's G− P. aeruginosa K201 PAO6609.
Setting [6] is: Staphylococcus aureus, S. aureus MRSA5, read-out: Median MIC's G+ S. aureus MRSA5.
Setting [7] is: Staphylococcus aureus, S. aureus RN450, read-out: Median MIC's G+ S. aureus RN450.
Setting [8] is: Streptococcus pneumoniae, S. pneumoniae 157E-Strep, read-out: Median MIC's G+ S. pneumoniae 157E-Strep.

A word on the MIC: it is the lowest concentration that inhibits growth of the organism.

Converted amounts (≈) assume the structure as drawn. Where two headings read alike, the source gives them in different places. Some results are limits rather than exact numbers.

On to `CC1CCN(CC(=O)c2ccc(O)c3c2C[C@H]2C[C@H]4[C@H](N(C)C)C(O)=C(C(N)=O)C(=O)[C@@]4(O)C(O)=C2C3=O)CC1` [BH, 7-[2-(4-methyl-piperidin-1-yl)acetyl]-Sancycline], for which the IC50 at 24 h (in the data set “in vitro”; in data set [1]) was greater than 136 µM throughout. The “Photo Toxicity UV Tox50” value in the data set with 3T3 fibroblast cells is greater than 135.66 µM. The “Photo Toxicity Dark Tox50” value in the data set with 3T3 fibroblast cells is greater than 135.66 µM. The MIC with gram negative bacteria (setting [2]) was 0.25 µg/mL (≈ 0.452 µM); in the data set on gram negative bacteria (setting [3]) it was 0.06 µg/mL (≈ 0.108 µM); in the data set on gram negative bacteria (setting [4]), 0.06 µg/mL (≈ 0.108 µM); in the data set with gram negative bacteria (setting [5]), 32 µg/mL (≈ 57.8 µM); in the data set with gram positive bacteria (setting [6]), 0.06 µg/mL (≈ 0.108 µM); with gram positive bacteria (setting [7]), 0.06 µg/mL (≈ 0.108 µM). Also, the MIC in the data set on gram positive bacteria (setting [8]) worked out at 0.06 µg/mL (≈ 0.108 µM).

For `CN(C)[C@@H]1C(O)=C(C(N)=O)C(=O)[C@@]2(O)C(O)=C3C(=O)c4c(O)ccc(-c5cnc6ccccc6c5)c4C[C@H]3C[C@@H]12` [G], the IC50 at 24 h in “in vitro” is 14.8 µM; in data set [1] it was 15.9 µM. Further, the “Photo Toxicity UV Tox50” value with 3T3 fibroblast cells worked out at 19.29 µM. For the same molecule, in the data set on 3T3 fibroblast cells, the “Photo Toxicity Dark Tox50” value was greater than 159.48 µM. Moreover, the MIC was 64 µg/mL (≈ 118 µM) in the data set with gram negative bacteria (setting [2]); 64 µg/mL (≈ 118 µM) with gram negative bacteria (setting [3]); 4 µg/mL (≈ 7.39 µM) with gram negative bacteria (setting [4]); 64 µg/mL (≈ 118 µM) in the data set on gram negative bacteria (setting [5]); 0.5 µg/mL (≈ 0.923 µM) in the data set with gram positive bacteria (setting [6]); 0.06 µg/mL (≈ 0.111 µM) in the data set with gram positive bacteria (setting [7]). Besides, the MIC with gram positive bacteria (setting [8]) amounted to 0.06 µg/mL (≈ 0.111 µM).

On to `CN(C)[C@H]1C(O)=C(C(N)=O)C(=O)[C@@]2(O)C(O)=C3C(=O)c4c(O)ccc(-c5cnc6ccccc6c5)c4C[C@H]3C[C@@H]12` [H], for which the IC50 at 24 h (in the data set “in vitro”; in data set [1]) was greater than 15.9 µM each time. The “Photo Toxicity UV Tox50” value in the data set with 3T3 fibroblast cells is greater than 159.48 µM. In the data set on 3T3 fibroblast cells, the “Photo Toxicity Dark Tox50” value was greater than 159.48 µM. For the same molecule, the MIC with gram negative bacteria (setting [2]) is 64 µg/mL (≈ 118 µM); in the data set with gram negative bacteria (setting [3]) it was 64 µg/mL (≈ 118 µM); with gram negative bacteria (setting [4]), 64 µg/mL (≈ 118 µM); in the data set on gram negative bacteria (setting [5]) it was 64 µg/mL (≈ 118 µM); with gram positive bacteria (setting [6]), 2 µg/mL (≈ 3.69 µM); with gram positive bacteria (setting [7]), 0.5 µg/mL (≈ 0.923 µM). Moreover, the MIC with gram positive bacteria (setting [8]) amounted to 0.25 µg/mL (≈ 0.462 µM).

With `CN(C)CCCNC(=O)c1ccc(-c2ccc(O)c3c2C[C@H]2C[C@H]4[C@H](N(C)C)C(O)=C(C(N)=O)C(=O)[C@@]4(O)C(O)=C2C3=O)o1` [DH], the IC50 at 24 h (in the data set “in vitro”; in data set [1]) was greater than 200 µM in each case. In the data set with 3T3 fibroblast cells, the “Photo Toxicity UV Tox50” value is greater than 200 µM. In the data set with 3T3 fibroblast cells, the “Photo Toxicity Dark Tox50” value was greater than 200 µM. Moreover, the MIC was determined as 64 µg/mL (≈ 105 µM) with gram negative bacteria (setting [2]); 64 µg/mL (≈ 105 µM) with gram negative bacteria (setting [3]); 64 µg/mL (≈ 105 µM) with gram negative bacteria (setting [4]); 64 µg/mL (≈ 105 µM) in the data set on gram negative bacteria (setting [5]); 64 µg/mL (≈ 105 µM) with gram positive bacteria (setting [6]); 4 µg/mL (≈ 6.57 µM) in the data set with gram positive bacteria (setting [7]). In the data set with gram positive bacteria (setting [8]), the minimal inhibitory concentration (MIC) was determined as 2 µg/mL (≈ 3.29 µM).

Take `CN(C)CCCCNCc1cccc(-c2ccc(O)c3c2C[C@H]2C[C@H]4[C@H](N(C)C)C(O)=C(C(N)=O)C(=O)[C@@]4(O)C(O)=C2C3=O)c1` [CV]: the IC50 at 24 h (in the data set “in vitro”; in data set [1]) was greater than 135 µM in each case. Also, in the data set with 3T3 fibroblast cells, the “Photo Toxicity UV Tox50” value was greater than 134.59 µM. Besides, in the data set with 3T3 fibroblast cells, the “Photo Toxicity Dark Tox50” value was greater than 134.59 µM. The MIC was determined as 64 µg/mL (≈ 103 µM) with gram negative bacteria (setting [2]); 64 µg/mL (≈ 103 µM) with gram negative bacteria (setting [3]); 64 µg/mL (≈ 103 µM) in the data set on gram negative bacteria (setting [4]); 64 µg/mL (≈ 103 µM) in the data set on gram negative bacteria (setting [5]); 32 µg/mL (≈ 51.7 µM) in the data set on gram positive bacteria (setting [6]); 2 µg/mL (≈ 3.23 µM) in the data set with gram positive bacteria (setting [7]). In addition, the MIC in the data set with gram positive bacteria (setting [8]) turned out to be 4 µg/mL (≈ 6.46 µM).

For `CN(C)CCCNC(=O)c1cccc(-c2ccc(O)c3c2C[C@H]2C[C@H]4[C@@H](N(C)C)C(O)=C(C(N)=O)C(=O)[C@@]4(O)C(O)=C2C3=O)c1` [P], the IC50 at 24 h (in “in vitro”; in data set [1]) was greater than 123 µM each time. Moreover, in the data set with 3T3 fibroblast cells, the “Photo Toxicity UV Tox50” value is greater than 122.9 µM. In addition, the “Photo Toxicity Dark Tox50” value in the data set with 3T3 fibroblast cells is greater than 122.9 µM. The MIC is 64 µg/mL (≈ 103 µM) with gram negative bacteria (setting [2]); 64 µg/mL (≈ 103 µM) in the data set with gram negative bacteria (setting [3]); 64 µg/mL (≈ 103 µM) in the data set with gram negative bacteria (setting [4]); 64 µg/mL (≈ 103 µM) in the data set with gram negative bacteria (setting [5]); 64 µg/mL (≈ 103 µM) in the data set with gram positive bacteria (setting [6]); 4 µg/mL (≈ 6.47 µM) in the data set with gram positive bacteria (setting [7]). In addition, the MIC in the data set with gram positive bacteria (setting [8]) is 8 µg/mL (≈ 12.9 µM).

As for `CN(C)CCCNCc1cccc(-c2ccc(O)c3c2C[C@H]2C[C@H]4[C@H](N(C)C)C(O)=C(C(N)=O)C(=O)[C@@]4(O)C(O)=C2C3=O)c1` [CX], the IC50 at 24 h (in the data set “in vitro”; in data set [1]) was greater than 137 µM in each case. The “Photo Toxicity UV Tox50” value in the data set with 3T3 fibroblast cells is greater than 137.23 µM. The “Photo Toxicity Dark Tox50” value in the data set with 3T3 fibroblast cells is greater than 137.23 µM. Further, the MIC amounted to 32 µg/mL (≈ 52.9 µM) with gram negative bacteria (setting [2]); 16 µg/mL (≈ 26.5 µM) with gram negative bacteria (setting [3]); 16 µg/mL (≈ 26.5 µM) in the data set with gram negative bacteria (setting [4]); 64 µg/mL (≈ 106 µM) with gram negative bacteria (setting [5]); 8 µg/mL (≈ 13.2 µM) in the data set with gram positive bacteria (setting [6]); 0.5 µg/mL (≈ 0.827 µM) in the data set with gram positive bacteria (setting [7]). In addition, in the data set on gram positive bacteria (setting [8]), the MIC worked out at 0.25 µg/mL (≈ 0.413 µM).
